# Assay results published in patent US20160129089A1, “COMBINATION THERAPY” (ANTISENSE THERAPEUTICS LTD, priority 2013, published 2016).
# e = 2'-O-(2-methoxyethyl) (MOE); d = 2'-deoxy (DNA)
# Test system: human growth hormone receptor mRNA
# Experiment: Inhibition of human growth hormone receptor mRNA levels by antisense oligonucleotides, quantitative real-time PCR, MCF7 cells
# Type: cell-based
# Parameters: concentration or dose not given beside the values
# Conditions: averages from three experiments
# Procedure: “Target site” indicates the first (5′-most) nucleotide number on the particular target sequence to which the oligonucleotide binds. “% Inhib” indicates the inhibitory effect on hGHR mRNA levels by quantitative real-time PCR. Data are averages from three experiments in which MCF7 cells were treated with the antisense oligonucleotides.
# All oligonucelotides in Table 1 are chimeric oligonucleotides (“gapmers”), 20 nucleotides in length, composed of a central “gap” region consisting of ten 2′-deoxynucleotides, which is flanked on both sides (5′ and 3′ directions) by five-nucleotide “wings”. The wings are composed of 2′-methoxyethyl (2′-MOE) nucleotides. The internucleoside (backbone) linkages are phosphorothioate (P═S) throughout the oligonucleotide. All uracils are 5-methyluracils (^MeU). Typically, the oligonucleotide is synthesized using 2-methoxyethyl modified thymidines not 5-methyluracils. All pyrimidines are C5 methylated (i.e., U, T, C are C5 methylated).
row,Substance,% INHIB (inhibitory effect on hGHR mRNA levels) [%]
1,"227481 (antisense TGGTGATGTAAATGTCCTCT; sugars from the 5' end e5 d10 e5, all phosphorothioate, methylation of C not given here) [compound 227481]",45
2,"272331 (antisense CAGTCGCATTGAGTATGAGG; sugars from the 5' end e5 d10 e5, all phosphorothioate, methylation of C not given here) [compound 272331]",67
3,"272302 (antisense GATCCATACCTGTAGGACCT; sugars from the 5' end e5 d10 e5, all phosphorothioate, methylation of C not given here) [compound 272302]",60
4,"272348 (antisense CACAGCTTTGAATTGAATTA; sugars from the 5' end e5 d10 e5, all phosphorothioate, methylation of C not given here) [compound 272348]",57
5,"272310 (antisense TTTCATCCACTGTACCACCA; sugars from the 5' end e5 d10 e5, all phosphorothioate, methylation of C not given here) [compound 272310]",76
6,"272359 (antisense TCCAAATATTCTGGTACTTT; sugars from the 5' end e5 d10 e5, all phosphorothioate, methylation of C not given here) [compound 272359]",72
7,"227488 (antisense AGTTGGTCTGTGCTCACATA; sugars from the 5' end e5 d10 e5, all phosphorothioate, methylation of C not given here) [compound 227488]",86
8,"272344 (antisense ACACTCAATTCTAGCTTTTC; sugars from the 5' end e5 d10 e5, all phosphorothioate, methylation of C not given here) [compound 272344]",60
9,"272347 (antisense TCTACACTGATGATACTTTA; sugars from the 5' end e5 d10 e5, all phosphorothioate, methylation of C not given here) [compound 272347]",62
10,"272326 (antisense ACTCAGCTCCTTCAGTAGGA; sugars from the 5' end e5 d10 e5, all phosphorothioate, methylation of C not given here) [compound 272326]",77
11,"272308 (antisense GCTGTATGGGTCCTAGGTTC; sugars from the 5' end e5 d10 e5, all phosphorothioate, methylation of C not given here) [compound 272308]",57
12,"227502 (antisense GATTGAGGTATTTAGCTATT; sugars from the 5' end e5 d10 e5, all phosphorothioate, methylation of C not given here) [compound 227502]",56
13,"272353 (antisense ATAATGGCTTATGTGGCCAC; sugars from the 5' end e5 d10 e5, all phosphorothioate, methylation of C not given here) [compound 272353]",72
14,"227500 (antisense CATAGCAGCAAAGTAGCAGA; sugars from the 5' end e5 d10 e5, all phosphorothioate, methylation of C not given here) [compound 227500]",69
15,"272306 (antisense TTAGAAGAATTTGTCTTTAG; sugars from the 5' end e5 d10 e5, all phosphorothioate, methylation of C not given here) [compound 272306]",13
16,"272330 (antisense GATGCACTTTTTGGCATCTG; sugars from the 5' end e5 d10 e5, all phosphorothioate, methylation of C not given here) [compound 272330]",47
17,"272318 (antisense TCAGCATTTTAATCCTTTGC; sugars from the 5' end e5 d10 e5, all phosphorothioate, methylation of C not given here) [compound 272318]",55
18,"227480 (antisense ATGTAAATGTCCTCTTGGTT; sugars from the 5' end e5 d10 e5, all phosphorothioate, methylation of C not given here) [compound 227480]",66
19,"272351 (antisense ATAGAAATGTTGTCAGGCTG; sugars from the 5' end e5 d10 e5, all phosphorothioate, methylation of C not given here) [compound 272351]",57
20,"272319 (antisense ATTTTCCTTCCTTGAGGAGA; sugars from the 5' end e5 d10 e5, all phosphorothioate, methylation of C not given here) [compound 272319]",67
21,"272335 (antisense AAATACGTAGCTCTTGGGAA; sugars from the 5' end e5 d10 e5, all phosphorothioate, methylation of C not given here) [compound 272335]",47
22,"272334 (antisense AAGAAAGGCTAAGGCATGAT; sugars from the 5' end e5 d10 e5, all phosphorothioate, methylation of C not given here) [compound 272334]",61
23,"272304 (antisense TGCTAAGGATAGCTGCTGTG; sugars from the 5' end e5 d10 e5, all phosphorothioate, methylation of C not given here) [compound 272304]",48
24,"272333 (antisense GTGCTCACATAGCCACATGA; sugars from the 5' end e5 d10 e5, all phosphorothioate, methylation of C not given here) [compound 272333]",72
25,"227490 (antisense GCATGATTTTGTTCAGTTGG; sugars from the 5' end e5 d10 e5, all phosphorothioate, methylation of C not given here) [compound 227490]",67
26,"272337 (antisense AAACATAGCCATTCAATGCT; sugars from the 5' end e5 d10 e5, all phosphorothioate, methylation of C not given here) [compound 272337]",39
